Assay results published in patent US20050288333A1 (priority 2004, published 2005).
Structures can show the parent of a compound that is named as a salt. Where two headings read alike, the source gives them in different places.

Key:
[1] = molecular target: T1, α4β2 nicotinic acetylcholine receptor (Rattus norvegicus, UniProt P09483+P12390); test: [3H]-N-methylcarbamyl choline (3H-MCC) displacement, rat cerebral cortex membranes; type: binding
T1 construct: from tissue; host or cells: rat cerebral cortex membranes
T1 sequence (P09483 31-630): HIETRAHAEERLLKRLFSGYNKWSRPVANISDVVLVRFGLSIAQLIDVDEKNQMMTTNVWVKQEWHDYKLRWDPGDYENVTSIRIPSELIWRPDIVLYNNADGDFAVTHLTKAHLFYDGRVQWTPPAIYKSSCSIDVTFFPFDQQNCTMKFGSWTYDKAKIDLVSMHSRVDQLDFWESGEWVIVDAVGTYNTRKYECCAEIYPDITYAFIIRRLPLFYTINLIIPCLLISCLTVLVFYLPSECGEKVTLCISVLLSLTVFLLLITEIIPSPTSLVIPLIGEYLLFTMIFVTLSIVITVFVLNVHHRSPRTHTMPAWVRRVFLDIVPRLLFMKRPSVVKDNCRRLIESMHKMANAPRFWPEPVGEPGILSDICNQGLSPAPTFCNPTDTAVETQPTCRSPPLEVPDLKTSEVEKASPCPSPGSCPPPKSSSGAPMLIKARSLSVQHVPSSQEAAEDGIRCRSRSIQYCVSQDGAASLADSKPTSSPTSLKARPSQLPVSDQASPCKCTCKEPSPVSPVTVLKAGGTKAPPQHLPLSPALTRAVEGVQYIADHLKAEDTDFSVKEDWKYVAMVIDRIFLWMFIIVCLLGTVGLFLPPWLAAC
T1 sequence (P12390 25-500): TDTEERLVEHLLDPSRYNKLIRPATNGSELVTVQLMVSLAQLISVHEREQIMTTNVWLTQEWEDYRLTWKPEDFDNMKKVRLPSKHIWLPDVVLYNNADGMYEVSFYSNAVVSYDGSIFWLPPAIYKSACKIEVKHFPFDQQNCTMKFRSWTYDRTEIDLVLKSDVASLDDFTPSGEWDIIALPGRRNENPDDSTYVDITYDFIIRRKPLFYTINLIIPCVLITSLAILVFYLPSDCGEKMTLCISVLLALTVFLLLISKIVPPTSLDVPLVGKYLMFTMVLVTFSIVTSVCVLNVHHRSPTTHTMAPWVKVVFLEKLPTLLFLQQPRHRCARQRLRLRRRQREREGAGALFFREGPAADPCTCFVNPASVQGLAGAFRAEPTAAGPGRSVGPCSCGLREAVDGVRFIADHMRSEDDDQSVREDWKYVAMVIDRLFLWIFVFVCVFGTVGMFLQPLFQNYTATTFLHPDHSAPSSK
Protocol: Binding at the α4β2 nicotinic acetyicholine receptor can be measured as described in Abood, et al., Biochem. Pharmacol., 1986, 35:4199, or in Boksa, et al, Eur. J Pharmacol., 1987, 139:323. In essence, washed rat cerebral cortex membranes suspended in ice-cold saline (pH 7.4) were incubated with [^3H]-N-methylcarbamyl choline (^3H—MCC) for 60 minutes before being washed free of unbound radioligand with two rapid washes of the saline solution, using vacuum filtration. The glass filters used to collect the membranes for scintillation counting were pre-equilibrated with polyethyleneimine to reduce ligand binding by the filters.
Atropine sulfate at 12 μM was used to block muscarinic binding sites. Non-specific binding was assessed in the presence of 100 μM carbamylcholine. Thus, the Kd values of the test compounds were determined by their ability to compete for [^3H-acetyl]choline or ^3H—MCC binding. […] Some representative compounds of Formula I were tested for their ability to displace [^3H]—MCC. The Kl values presented in the table are mean values obtained from two separate experiments. […] In Table 3, “NA.” means that the data are not available.

[2] = system: α7 receptors; test: Residual inhibition of ACh response after exposure to compound, oocytes; type: cell-based; settings: 100 pM compound
Protocol: Peak currents were measured for responses of α4β2 receptors to agonist application, because desensitization of this receptor subtype was slow enough not to affect the concentration-response relation measured in this manner. Currents resulting from agonist application to the more rapidly desensitizing α7 receptors were integrated over a period of […] after application commenced. To compare data obtained from different oocytes, a standard response normalization procedure was used. Agonist responses of a particular oocyte were always normalized relative to its response to a standard acetylcholine (ACh) control. Before actual measurements of agonist properties, several ACh pulses separated by 5-mm intervals were applied until the responses of the oocyte to ACh became steady. After washing for 5 mm, the peak current response to the test compound was measured. After another 5-mm washing period, ACh was again applied to measure the residual responsiveness of the receptors to ACh after exposure to the test substance. The concentration-response data were fitted with a modified Hill equation, I=Imax [agonist]^nH/([agonist]^nH+EC50), to estimate apparent efficacy (normalized maximal response) and EC50.
The numbers in parentheses in Table 2 are calculated EC50, values for just the ionized forms.

[3] = molecular target: α4β2 nicotinic receptors (Rattus norvegicus, UniProt P09483+P12390); test: [3H]cytisine binding displacement, washed whole rat brain membranes
Chain of α4β2 nicotinic receptors (P09483 31-630): as the sequence (P09483 31-630) above
Chain of α4β2 nicotinic receptors (P12390 25-500): as the sequence (P12390 25-500) above

[4] = Kitagawa et al. 2003; cited from earlier work
[5] = displacement of [3H]-MCC, mean of two experiments, Cheng-Prusoff with Kd 5 nM, read-out: α4β2 Ki
[6] = inhibitory concentration of the ionized form, calculated assuming only the cationic form interacts, read-out: [3H] Cytisine Binding Ki(Ion)
[7] = rat brain membranes, radioligand 1 nM, mean±S.E.M. of three experiments, read-out: [3H] Cytisine Binding Ki ± S.E.M.

Q: With “6′-Methyl-3-(2,4-dimethoxybenzylidene)anabaseine [GTS-57]” as the compound, how does the Ki [1, 5] read?
A: 500 nM

Q: Which Ki ([1]; read-out: α4β2 Ki) does the source give for CN(C)c1ccc(C=CC=C2CCCN=C2c2cccnc2)cc1 [DMACA, 3-(4-Dimethylaminocinnamylidene)anabaseine] here?
A: 400 nM

Q: With COc1ccc(C=C2CCCN=C2c2cccnc2)cc1 [GTS-2, 3-(4-Methoxybenzylidene)anabaseine] as the compound, how does the Ki [1] read?
A: 320 nM

Q: With O=[N+]([O-])c1ccc(C=C2CCCN=C2c2cccnc2)cc1 [GTS-3, 3-(4-Nitrobenzylidene)anabaseine] as the compound, how does the Ki ([1]; read-out: α4β2 Ki) read?
A: > 5000 nM

Q: For N#Cc1ccc(C=C2CCCN=C2c2cccnc2)cc1 [GTS-5, 3-(4-Cyanobenzylidene)anabaseine], which Ki ([1]; read-out: α4β2 Ki) is on record?
A: > 5000 nM

Q: Which Ki ([1]; read-out: α4β2 Ki) does the source give for Oc1ccc(C=C2CCCN=C2c2cccnc2)cc1 [GTS-7, 3-(4-Hydroxybenzylidene)anabaseine] here?
A: 25 nM

Q: For Clc1ccc(C=C2CCCN=C2c2cccnc2)cc1 [GTS-8, 3-(4-Chlorobenzylidene)anabaseine], which Ki ([1]; read-out: α4β2 Ki) is on record?
A: > 5000 nM

Q: Which Ki ([1]; read-out: α4β2 Ki) does the source give for Nc1ccc(C=C2CCCN=C2c2cccnc2)cc1 [GTS-13, 3-(4-Aminobenzylidene)anabaseine] here?
A: 170 nM

Q: With CN(C)CCCOc1ccc(C=C2CCCN=C2c2cccnc2)cc1 [GTS-15, 3-(4-Dimethylaminopropoxy-benzylidene)anabaseine] as the compound, how does the Ki ([1]; read-out: α4β2 Ki) read?
A: 1600 nM

Q: With COc1ccccc1C=C1CCCN=C1c1cccnc1 [GTS-16, 3-(2-Methoxybenzylidene)anabaseine] as the compound, how does the Ki ([1]; read-out: α4β2 Ki) read?
A: 830 nM

Q: For COc1cccc(C=C2CCCN=C2c2cccnc2)c1 [GTS-20, 3-(3-Methoxybenzylidene)anabaseine], which Ki [1] is on record?
A: 4000 nM

Q: With COc1ccc(/C=C2\CCCN=C2c2cccnc2)c(OC)c1 [GTS-21, 3-(2,4-Dimethoxybenzylidene)anabaseine] as the compound, how does the Ki ([1]; read-out: α4β2 Ki) read?
A: 120 nM

Q: What about the “residual inhibition (reduced response to ACh 5 min after washing)” value [2] of the same compound?
A: ~50%

Q: And the Ki [3, 6]?
A: 158 nM

Q: What about the Ki [3, 7] of the same compound?
A: 253 ± 37 nM

Q: And the “human toxicity in phase I clinical trial” value [4]?
A: did not display significant human toxicity

Q: With COc1cc(C=C2CCCN=C2c2cccnc2)ccc1O [GTS-23, 3-(3-Methoxy-4-hydroxybenzylidene)anabaseine] as the compound, how does the Ki ([1]; read-out: α4β2 Ki) read?
A: > 5000 nM

Q: For Cc1ccc(C2=NCCCC2)cn1 [GTS-26, 6′-Methylanabaseine], which Ki [1] is on record?
A: 26 nM

Q: Which Ki [1] does the source give for Cc1ncccc1C1=NCCCC1 [GTS-27, 2′-Methylanabaseine] here?
A: 33000 nM

Q: For Cc1ccncc1C1=NCCCC1 [GTS-28, 4′-Methylanabaseine], which Ki [1] is on record?
A: 3800 nM

Q: With COc1cc(OC)c(C=C2CCCN=C2c2cccnc2)c(OC)c1 [GTS-35, 3-(2,4,6-Trimethoxybenzylidene)anabaseine] as the compound, how does the Ki ([1]; read-out: α4β2 Ki) read?
A: 170 nM

Q: For Clc1ccc(C=C2CCCN=C2c2cccnc2)c(Cl)c1 [GTS-38, 3-(2,4-Dichlorobenzylidene)anabaseine], which Ki ([1]; read-out: α4β2 Ki) is on record?
A: 2000 nM

Q: Which Ki ([1]; read-out: α4β2 Ki) does the source give for Cc1ccc(C=C2CCCN=C2c2cccnc2)c(C)c1 [GTS-39, 3-(2,4-Dimethylbenzylidene)anabaseine] here?
A: 1000 nM

Q: For Cc1cc(C)c(C=C2CCCN=C2c2cccnc2)c(C)c1 [GTS-40, 3-(2,46,-Trimethylbenzylidene)anabaseine], which Ki ([1]; read-out: α4β2 Ki) is on record?
A: 500 nM

Q: Which Ki ([1]; read-out: α4β2 Ki) does the source give for C(=C1CCCN=C1c1cccnc1)c1ccco1 [GTS-43, 3-(2-Furylidene)anabaseine] here?
A: 640 nM

Q: Which Ki ([1]; read-out: α4β2 Ki) does the source give for C(=Cc1ccco1)C=C1CCCN=C1c1cccnc1 [GTS-44, 3-(2-Furylpropenylidene)anabaseine] here?
A: 800 nM

Q: With C(=C1CCCN=C1c1cccnc1)c1ccoc1 [GTS-45, 3(3-Furylidene)anabaseine] as the compound, how does the Ki ([1]; read-out: α4β2 Ki) read?
A: 860 nM

Q: Which Ki ([1]; read-out: α4β2 Ki) does the source give for Cc1ccc(C=C2CCCN=C2c2cccnc2)cc1 [GTS-48, 3-(4-Methylbenzylidene)anabaseine] here?
A: 2000 nM

Q: For COc1ccc(C=C2CCCN=C2c2cccnc2)c(O)c1 [GTS-51, 3-(2-Hydroxy-4-methoxybenzylidene)anabaseine], which Ki ([1]; read-out: α4β2 Ki) is on record?
A: 1500 nM

Q: And the Ki [3, 6]?
A: 128 nM

Q: What about the Ki [3, 7] of the same compound?
A: 387 ± 25 nM

Q: Which Ki ([1]; read-out: α4β2 Ki) does the source give for Oc1ccc(C=C2CCCN=C2c2cccnc2)c(O)c1 [GTS-52, 3-(2,4-Dihydroxybenzylidene)anabaseine] here?
A: 450 nM

Q: What about the Ki [3, 6] of the same compound?
A: 103 nM

Q: And the Ki [3, 7]?
A: 206 ± 16 nM

Q: With CCCOc1ccc(C=C2CCCN=C2c2cccnc2)c(OCCC)c1 [GTS-53, 3-(2,4-Dipropoxybenzylidene)anabaseine] as the compound, how does the Ki ([1]; read-out: α4β2 Ki) read?
A: 4500 nM

Q: For CC(C)Oc1ccc(C=C2CCCN=C2c2cccnc2)c(OC(C)C)c1 [GTS-54, 3-(2,4-Diisopropoxybenzylidene)anabaseine], which Ki ([1]; read-out: α4β2 Ki) is on record?
A: 1000 nM

Q: For CCCCCOc1ccc(C=C2CCCN=C2c2cccnc2)c(OCCCCC)c1 [GTS-55, 3-(2,4-Dipentoxybenzylidene)anabaseine], which Ki ([1]; read-out: α4β2 Ki) is on record?
A: 2500 nM

Q: With CCCCCOc1ccc(C=C2CCCN=C2c2cccnc2)c(O)c1 [GTS-56, 3-(2-Hydroxy-4-pentoxybenzylidene)anabaseine] as the compound, how does the Ki ([1]; read-out: α4β2 Ki) read?
A: 250 nM

Q: For COc1ccc(C=C2CCC[N+](C)=C2c2cccnc2)c(OC)c1 [GTS-58, 1-Methyl-3-(2,4-djmethoxybenzylidene)anabaseine trifluoroacetate], which Ki [1, 5] is on record?
A: > 5000 nM

Q: Which Ki [1] does the source give for Cc1cncc(C2=NCCCC2)c1 [GTS-60, 5′-Methylanabaseine] here?
A: 130 nM

Q: Which Ki ([1]; read-out: α4β2 Ki) does the source give for COc1ccc(C=C2CCCN=C2c2ccccc2)c(OC)c1 [GTS-63, 2-Phenyl-3-(2,4-dimethoxybenzylidene)-4,5,6-trihydropyridine] here?
A: > 5000 nM
